# In patent US20040229954A1, “Selective manipulation of triglyceride, HDL and LDL parameters with 6-(5-carboxy-5-methyl-hexyloxy)-2,2-dimethylhexanoic acid monocalcium salt” (priority 2003, published 2004):
# Marks after values point to notes of the source that are not given here.
# Test: Randomized, double-blind, placebo-controlled dose-response study of gemcabene in patients with HDL-C <35 mg/dL; percent change from baseline in serum lipids and apolipoproteins
# Format: in vivo, human
# Method: A randomized, double-blind, placebo-controlled, parallel group, dose-response, multicenter study was conducted. The study was conducted at 11 centers in the United States and one center in Canada. Institutional Review Board approval was obtained at each center and every patient was informed of the study, freely consented to participate and signed an informed consent document. Following a 6-week, single-blind placebo, dietary lead in period conducted according to National Cholesterol Education Program Step 1 Diet, eligible patients with HDL-C level <35 mg/dL (0.9 mmol/L) were stratified according to whether mean serum TG levels, calculated from measures at 2 and 4 weeks prior to randomization, were <200 mg/dL (2.3 mmol/L) or >200 mg/dL (2.3 mmol/L). Within each TG stratum, patients were randomized to receive either 150, 300, 600, or 900 mg of gemcabene or placebo daily once daily for 12 weeks.
# Eligible patients were women of non-childbearing potential (naturally postmenopausal or surgically sterilized) or men 18 to 80 years of age with a baseline serum HDL-C levels <35 mg/dL. Patients were excluded if they had creatine kinase serum levels >3 times the upper limit of normal, a body mass index >35 kilogram/meter^2, uncontrolled hypertension defined as sitting diastolic blood pressure >95 mm Hg whether taking or not taking an acceptable antihypertensive medication, uncontrolled diabetes mellitus (Hemoglobin A1C>10%), hepatic dysfunction including asparate aminotransferase or alanine aminotransferase levels >2 times the upper limits of normal, renal dysfunction as defined by blood urea nitrogen or creatinine levels >2 times upper limits of normal or uncontrolled hypothyroidism (thyroid stimulating hormone >1.5 times the upper limits of normal). Also excluded were those with a prior history of known gall bladder disease or pancreatitis, a history of consuming >14 alcoholic drinks per week, or those with a known hypersensitivity to lipid-altering drugs. Patients who had myocardial infarction, severe or unstable angina pectoris, coronary artery bypass graft or any other cardiovascular event requiring hospitalization within the last 3 months were also excluded from the study. Patients were not permitted any other lipid-altering drugs during the course of the study and if on prestudy lipid-altering drug therapy, were required to undergo an additional 4-week washout period. Use of isotretinoin, insulin, warfarin, immunosuppressive agents and intermittent systemic steroids were also prohibited. Alpha-blockers, β-blockers, hormone replacement therapy and oral hypoglycemic agents were permitted provided that their use was stable for at least 3 months.
# The primary efficacy parameter was percent change from baseline in serum HDL-C levels at the study subject's last visit. Other efficacy parameters included percent change from baseline in serum LDL-C, TG, apolipoproteins A-I, A-II, B, C-III, E, and non-HDL-C levels. Additionally, nuclear magnetic resonance (NMR) spectroscopy was used to assess VLDL, HDL and LDL particle sizes as well as the total concentration of LDL particles. For HDL-C, non-HDL-C, LDL-C, and TG levels, the baseline value was the mean plasma value of two measurements, one obtained 2 weeks prior to randomization and one obtained at randomization. For all other parameters, the baseline value was defined as the single measurement obtained at randomization.
# All blood samples were collected following a 12-hour fast and analyzed by Medical Research Laboratories in Highland Heights, Ky. Blood samples for routine chemistry and hematology profiles were measured at screening, randomization and 4, 8, and 12 weeks following the start of study medication. Basic lipid profiles (HDL-C, LDL-C, and TG) were measured at screening, 2 and 4 weeks prior to starting study medication (during the baseline phase), at randomization, and at weeks 2, 4, 8 and 12 of the treatment phase. […]
# [1] = patients with TG <200 mg/dL, 150 mg once daily for 12 weeks, mean ± SE
# [2] = patients with TG <200 mg/dL, 150 mg once daily for 12 weeks, median (min, max)
# [3] = patients with TG <200 mg/dL, 300 mg once daily for 12 weeks, mean ± SE
# [4] = patients with TG <200 mg/dL, 300 mg once daily for 12 weeks, median (min, max)
# [5] = patients with TG <200 mg/dL, 600 mg once daily for 12 weeks, mean ± SE
# [6] = patients with TG <200 mg/dL, 600 mg once daily for 12 weeks, median (min, max)
# [7] = patients with TG <200 mg/dL, 900 mg once daily for 12 weeks, mean ± SE
# [8] = patients with TG <200 mg/dL, 900 mg once daily for 12 weeks, median (min, max)
# [9] = patients with TG ≧200 mg/dL, 150 mg once daily for 12 weeks, mean ± SE
# [10] = patients with TG ≧200 mg/dL, 150 mg once daily for 12 weeks, median (min, max)
# [11] = patients with TG ≧200 mg/dL, 300 mg once daily for 12 weeks, mean ± SE
# [12] = patients with TG ≧200 mg/dL, 300 mg once daily for 12 weeks, median (min, max)
# [13] = patients with TG ≧200 mg/dL, 600 mg once daily for 12 weeks, mean ± SE
# [14] = patients with TG ≧200 mg/dL, 600 mg once daily for 12 weeks, median (min, max)
# [15] = patients with TG ≧200 mg/dL, 900 mg once daily for 12 weeks, mean ± SE
# [16] = patients with TG ≧200 mg/dL, 900 mg once daily for 12 weeks, median (min, max)
# [17] = patients with mean baseline TG≧2200 mg/dL (so in the source), 150 mg dose
compound,measurement,setting,value
"CC(C)(CCCCOCCCCC(C)(C)C(=O)[O-])C(=O)[O-].[Ca+2] [gemcabene, 6-(5-carboxy-5-methyl-hexyloxy)-2,2-dimethylhexanoic acid monocalcium salt]",levels of apolipoprotein B,"both TG strata, 600 and 900 mg doses",corresponding decreases
same,reduction of non-HDL-C levels,"both TG strata, higher doses",up to 18%
same,"Percent Change from Baseline at Last Visit, Apolipoprotein A-II",[1],5.5 ± 2.6 %
same,"Percent Change from Baseline at Last Visit, Apolipoprotein CIII",[1],−7.0 ± 9.2%
same,"Percent Change from Baseline at Last Visit, HDL-C",[1],6.2 ± 3.1%
same,"Percent Change from Baseline at Last Visit, LDL-C",[1],−2.6 ± 4.4%
same,"Percent Change from Baseline at Last Visit, NonHDL-C",[1],−2.5 ± 4.0%
same,"Percent Change from Baseline at Last Visit, Apolipoprotein A-I",[2],"7.3 (−7, 40) %"
same,"Percent Change from Baseline at Last Visit, Apolipoprotein B",[2],"−0.7 (−17, 13) %"
same,"Percent Change from Baseline at Last Visit, Apolipoprotein E",[2],"−7.7 (−42, 15) %"
same,"Percent Change from Baseline at Last Visit, TG",[2],"−0.4 (−33, 32) %"
same,"Percent Change from Baseline at Last Visit, Apolipoprotein A-II",[3],3.3 ± 2.8%
same,"Percent Change from Baseline at Last Visit, Apolipoprotein CIII",[3],−14.3 ± 10.5%
same,"Percent Change from Baseline at Last Visit, HDL-C",[3],5.3 ± 3.5%
same,"Percent Change from Baseline at Last Visit, LDL-C",[3],−5.6 ± 5.2%
same,"Percent Change from Baseline at Last Visit, NonHDL-C",[3],−11.6 ± 4.2 %
same,"Percent Change from Baseline at Last Visit, Apolipoprotein A-I",[4],"1.3 (−11, 31) %"
same,"Percent Change from Baseline at Last Visit, Apolipoprotein B",[4],"−11.7 (−33, 2) %"
same,"Percent Change from Baseline at Last Visit, TG",[4],"−14.6 (−55, 18) %"
same,"Percent Change from Baseline at Last Visit, Apolipoprotein A-II",[5],7.2 ± 2.6 %
same,"Percent Change from Baseline at Last Visit, Apolipoprotein CIII",[5],5.4 ± 9.0%
same,"Percent Change from Baseline at Last Visit, HDL-C",[5],0.5 ± 3.2%
same,"Percent Change from Baseline at Last Visit, LDL-C",[5],−24.9 ± 4.6 %
same,"Percent Change from Baseline at Last Visit, NonHDL-C",[5],−17.6 ± 3.8 %
same,"Percent Change from Baseline at Last Visit, Apolipoprotein A-I",[6],"7.1 (−7, 89) %"
same,"Percent Change from Baseline at Last Visit, TG",[6],"6.4 (−45, 97) %"
same,"Percent Change from Baseline at Last Visit, Apolipoprotein A-II",[7],6.5 ± 2.5 %
same,"Percent Change from Baseline at Last Visit, Apolipoprotein CIII",[7],−9.5 ± 8.6%
same,"Percent Change from Baseline at Last Visit, HDL-C",[7],5.0 ± 3.2%
same,"Percent Change from Baseline at Last Visit, LDL-C",[7],−15.2 ± 4.4 %
same,"Percent Change from Baseline at Last Visit, NonHDL-C",[7],−17.9 ± 3.6 %
same,"Percent Change from Baseline at Last Visit, Apolipoprotein A-I",[8],"5.5 (−11, 34) %"
same,"Percent Change from Baseline at Last Visit, Apolipoprotein B",[8],"−15.7 (−38, 21) %"
same,"Percent Change from Baseline at Last Visit, TG",[8],"−8.1 (−35, 29) %"
same,"Percent Change from Baseline at Last Visit, Apolipoprotein A-II",[9],5.9 ± 2.7 %
same,"Percent Change from Baseline at Last Visit, Apolipoprotein CIII",[9],−23.6 ± 5.7 %
same,"Percent Change from Baseline at Last Visit, HDL-C",[9],17.6 ± 3.8 %
same,"Percent Change from Baseline at Last Visit, NonHDL-C",[9],−1.6 ± 3.6%
same,"Percent Change from Baseline at Last Visit, Apolipoprotein B",[10],"0.0 (−29, 33) %"
same,"Percent Change from Baseline at Last Visit, Apolipoprotein E",[10],"−20.0 (−52, 19) %"
same,"Percent Change from Baseline at Last Visit, LDL-C",[10],"16.4 (−26,255) %"
same,"Percent Change from Baseline at Last Visit, Apolipoprotein A-II",[11],0.5 ± 2.6%
same,"Percent Change from Baseline at Last Visit, Apolipoprotein CIII",[11],−30.9 ± 5.6 %
same,"Percent Change from Baseline at Last Visit, HDL-C",[11],12.3 ± 3.8%
same,"Percent Change from Baseline at Last Visit, NonHDL-C",[11],−9.4 ± 3.5%
same,"Percent Change from Baseline at Last Visit, Apolipoprotein B",[12],"−6.5 (−30, 31) %"
same,"Percent Change from Baseline at Last Visit, Apolipoprotein E",[12],−37.4** %
same,"Percent Change from Baseline at Last Visit, LDL-C",[12],"8.3 (−31, 252) %"
same,"Percent Change from Baseline at Last Visit, Apolipoprotein A-II",[13],−0.8 ± 3.0%
same,"Percent Change from Baseline at Last Visit, Apolipoprotein CIII",[13],−6.4 ± 6.5%
same,"Percent Change from Baseline at Last Visit, HDL-C",[13],−0.9 ± 4.1%
same,"Percent Change from Baseline at Last Visit, NonHDL-C",[13],−10.9 ± 4.2%
same,"Percent Change from Baseline at Last Visit, Apolipoprotein B",[14],"−5.7 (−34, 54) %"
same,"Percent Change from Baseline at Last Visit, Apolipoprotein E",[14],"−25.4 (−49, 18) %"
same,"Percent Change from Baseline at Last Visit, TG",[14],"−12.7 (−59, 38) %"
same,"Percent Change from Baseline at Last Visit, Apolipoprotein A-II",[15],−4.8 ± 2.6%
same,"Percent Change from Baseline at Last Visit, Apolipoprotein CIII",[15],−10.8 ± 5.6%
same,"Percent Change from Baseline at Last Visit, HDL-C",[15],−0.9 ± 3.8%
same,"Percent Change from Baseline at Last Visit, NonHDL-C",[15],−16.3 ± 4.3 %
same,"Percent Change from Baseline at Last Visit, Apolipoprotein E",[16],"−11.7 (−59, 65) %"
same,"Percent Change from Baseline at Last Visit, TG",[16],−9.0 %
same,serum HDL-C or TG levels versus placebo,"patients with mean baseline TG <200 mg/dL, any dose",no significant differences
same,decrease in apolipoprotein C-III,[17],23%
same,increase in level of apolipoprotein A-I,[17],6%
same,increase in level of apolipoprotein A-II,[17],6%
same,increase in serum HDL-C levels,[17],18%
same,reduction of TG serum levels,[17],27%
same,reduction of TG serum levels,"patients with mean baseline TG≧2200 mg/dL (so in the source), 300 mg dose",39%
same,serum HDL-C or TG levels versus placebo,"patients with mean baseline TG≧2200 mg/dL (so in the source), doses of 600 or 900 mg",No significant differences
